In ChEMBL document CHEMBL1909046, “DrugMatrix in vitro pharmacology data”:

Legend:
[1] = target: T1, C-C chemokine receptor type 4 (Homo sapiens, UniProt P51679); format: cell membranes, Membrane; settings: chem-1; note: in other assays of this panel Not Active means under 50% inhibition at 10 µM
T1 sequence (P51679 whole entry): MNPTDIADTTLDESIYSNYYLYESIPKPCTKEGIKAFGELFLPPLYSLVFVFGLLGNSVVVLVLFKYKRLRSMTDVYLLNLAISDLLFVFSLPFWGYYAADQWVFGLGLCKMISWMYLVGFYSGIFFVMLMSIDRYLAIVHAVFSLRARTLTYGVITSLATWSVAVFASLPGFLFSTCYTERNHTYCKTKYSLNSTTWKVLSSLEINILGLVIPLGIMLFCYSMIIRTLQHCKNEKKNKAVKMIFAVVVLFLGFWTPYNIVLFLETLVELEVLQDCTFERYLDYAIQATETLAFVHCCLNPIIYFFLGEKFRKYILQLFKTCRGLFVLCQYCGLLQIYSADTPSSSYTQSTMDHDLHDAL

[2] = DRUGMATRIX: Calcium Channel Type L, Benzothiazepine radioligand binding (ligand: [3H] Diltiazem); format: cell membranes, Rattus norvegicus, Wistar, Brain, Membrane; settings: Not Active = under 50% inhibition at 10 µM
[3] = target: T2, Alpha-2C adrenergic receptor (Homo sapiens, UniProt P18825); test: DRUGMATRIX: Adrenergic Alpha-2C radioligand binding (ligand: [3H] MK-912); format: cell membranes, Sf9, Membrane; settings: sf9
T2 sequence (P18825 whole entry): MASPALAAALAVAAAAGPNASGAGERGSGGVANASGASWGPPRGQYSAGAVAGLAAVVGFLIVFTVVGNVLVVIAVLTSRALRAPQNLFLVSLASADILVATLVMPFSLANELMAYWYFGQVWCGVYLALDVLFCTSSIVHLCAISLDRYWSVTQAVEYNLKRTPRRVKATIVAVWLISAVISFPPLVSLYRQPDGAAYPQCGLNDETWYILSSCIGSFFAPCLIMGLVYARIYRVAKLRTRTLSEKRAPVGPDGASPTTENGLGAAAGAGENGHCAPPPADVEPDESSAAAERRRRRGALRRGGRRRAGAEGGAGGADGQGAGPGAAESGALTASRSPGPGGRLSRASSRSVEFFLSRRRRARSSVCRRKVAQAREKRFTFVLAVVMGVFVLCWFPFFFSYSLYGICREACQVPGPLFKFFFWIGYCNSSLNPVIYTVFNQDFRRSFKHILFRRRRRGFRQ

Androgen receptor = target: T3, Androgen receptor (Rattus norvegicus, UniProt P15207); note: in other assays of this panel Not Active means under 50% inhibition at 10 µM
T3 sequence (P15207 whole entry): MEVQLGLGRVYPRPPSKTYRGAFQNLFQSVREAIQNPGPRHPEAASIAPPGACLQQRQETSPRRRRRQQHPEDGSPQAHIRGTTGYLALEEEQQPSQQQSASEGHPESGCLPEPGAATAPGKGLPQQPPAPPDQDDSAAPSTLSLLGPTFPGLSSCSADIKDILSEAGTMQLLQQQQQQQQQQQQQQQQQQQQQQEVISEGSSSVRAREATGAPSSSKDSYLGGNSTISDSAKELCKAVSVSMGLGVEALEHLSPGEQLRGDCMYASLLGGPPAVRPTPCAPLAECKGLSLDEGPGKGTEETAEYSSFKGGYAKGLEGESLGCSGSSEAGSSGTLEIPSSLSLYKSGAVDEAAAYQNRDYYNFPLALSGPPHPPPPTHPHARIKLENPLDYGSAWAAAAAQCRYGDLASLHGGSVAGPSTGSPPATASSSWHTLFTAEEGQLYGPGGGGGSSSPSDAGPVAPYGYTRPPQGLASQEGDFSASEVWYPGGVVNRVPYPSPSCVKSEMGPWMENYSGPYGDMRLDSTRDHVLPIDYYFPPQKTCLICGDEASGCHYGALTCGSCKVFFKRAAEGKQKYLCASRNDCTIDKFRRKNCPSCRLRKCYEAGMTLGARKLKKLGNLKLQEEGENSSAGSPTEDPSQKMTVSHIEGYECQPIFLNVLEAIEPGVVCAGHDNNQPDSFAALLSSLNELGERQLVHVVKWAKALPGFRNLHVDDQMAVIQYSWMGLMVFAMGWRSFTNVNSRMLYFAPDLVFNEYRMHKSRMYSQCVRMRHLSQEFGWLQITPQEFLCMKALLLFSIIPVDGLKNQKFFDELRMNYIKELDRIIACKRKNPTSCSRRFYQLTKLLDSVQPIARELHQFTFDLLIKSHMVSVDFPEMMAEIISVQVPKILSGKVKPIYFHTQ

Brc1ccccc1 [BROMOBENZENE]
Not Active: IC50 [1] | IC50 [2] | Ki [2] | IC50 [3] | IC50 (Androgen receptor)

COc1ccc2cc(CC(=O)O)ccc2c1
Not Active: IC50 [1] | IC50 [2] | Ki [2] | IC50 [3] | IC50 (Androgen receptor)

OCc1ccccc1 [BENZYL ALCOHOL]
Not Active: IC50 [1] | IC50 [2] | Ki [2] | IC50 [3] | IC50 (Androgen receptor)

CCc1cccc2c3c([nH]c12)C(CC)(CC(=O)O)OCC3 (stereo unspecified) [ETODOLAC]
Not Active: IC50 [1] | IC50 [2] | Ki [2] | IC50 [3] | IC50 (Androgen receptor)

COCc1c(C(C)C)nc(C(C)C)c(/C=C/[C@@H](O)C[C@@H](O)CC(=O)O)c1-c1ccc(F)cc1 [CERIVASTATIN]
Not Active: IC50 [1] | IC50 [2] | Ki [2] | IC50 [3] | IC50 (Androgen receptor)

CC1(C)S[C@@H]2[C@H](NC(=O)[C@H](N)c3ccc(O)cc3)C(=O)N2[C@H]1C(=O)O [AMOXICILLIN]
Not Active: IC50 [1] | IC50 [2] | Ki [2] | IC50 [3] | IC50 (Androgen receptor)

NCC[C@H](O)C(=O)N[C@@H]1C[C@H](N)[C@@H](O[C@H]2O[C@H](CN)[C@@H](O)[C@H](O)[C@H]2O)[C@H](O)[C@H]1O[C@H]1O[C@H](CO)[C@@H](O)[C@H](N)[C@H]1O [AMIKACIN]
Not Active: IC50 [1] | IC50 [2] | Ki [2] | IC50 [3] | IC50 (Androgen receptor)

Fc1ccc([C@@H]2CCNC[C@H]2COc2ccc3c(c2)OCO3)cc1 [PAROXETINE]
331 nM: Ki ([2]; read-out: Ki)
373 nM: IC50 ([2]; read-out: IC50)
Not Active: IC50 [1] | IC50 [3] | IC50 (Androgen receptor)

CC(C)NC[C@H](O)COc1cccc2[nH]ccc12
Not Active: IC50 [1] | IC50 [2] | Ki [2] | IC50 [3] | IC50 (Androgen receptor)

C=C1[C@@H]2CCC3[C@@](CC[C@@H]4[C@H](C(=O)O)C[C@@H](O[C@@H]5O[C@H](CO)[C@@H](OS(=O)(=O)[O-])[C@H](OS(=O)(=O)[O-])[C@H]5OC(=O)CC(C)C)C[C@@]34C)(C2)[C@@H]1O.[K+].[K+] (stereo partly specified) [ATRACTYLOSIDE]
Not Active: IC50 [1] | IC50 [2] | Ki [2] | IC50 [3] | IC50 (Androgen receptor)

O=c1cc(-c2ccccc2)oc2c1ccc1ccccc12 [ALPHA-NAPHTHOFLAVONE]
Not Active: IC50 [1] | IC50 [2] | Ki [2] | IC50 [3] | IC50 (Androgen receptor)

COc1ccc2c(c1)c(CC(=O)OCC(=O)O)c(C)n2C(=O)c1ccc(Cl)cc1 [ACEMETACIN]
Not Active: IC50 [1] | IC50 [2] | Ki [2] | IC50 [3] | IC50 (Androgen receptor)

CN1C(C(=O)Nc2ccccn2)=C(O)c2ccccc2S1(=O)=O [PIROXICAM]
Not Active: IC50 [1] | IC50 [2] | Ki [2] | IC50 [3]

N#C[C@H](O[C@@H]1O[C@H](CO[C@@H]2O[C@H](CO)[C@@H](O)[C@H](O)[C@H]2O)[C@@H](O)[C@H](O)[C@H]1O)c1ccccc1 [AMYGDALIN]
Not Active: IC50 [1] | IC50 [2] | Ki [2] | IC50 [3] | IC50 (Androgen receptor)

CCOC(=O)OC(C)OC1=C(C(=O)Nc2ccccn2)N(C)S(=O)(=O)c2ccccc21 (stereo unspecified) [AMPIROXICAM]
Not Active: IC50 [1] | IC50 [2] | Ki [2] | IC50 [3]

GOLD SODIUM THIOMALATE
Not Active: IC50 [1] | Ki [1] | IC50 [2] | Ki [2] | IC50 [3] | Ki [3] | IC50 (Androgen receptor) | Ki (Androgen receptor)

C[C@]12CCC(=O)C=C1CC[C@@H]1[C@@H]2C(=O)C[C@@]2(C)[C@H]1CC[C@]2(O)C(=O)CO [CORTISONE]
Not Active: IC50 [1] | IC50 [2] | Ki [2] | IC50 [3]

CCCC[C@@H](CC)COC(=O)c1ccccc1C(=O)OC[C@@H](CC)CCCC [BIS(2-ETHYLHEXYL)PHTHALATE]
Not Active: IC50 [1] | IC50 [2] | Ki [2] | IC50 [3]

CC(C)n1c(/C=C/C(O)CC(O)CC(=O)O)c(-c2ccc(F)cc2)c2ccccc21 (stereo unspecified) [FLUVASTATIN]
Not Active: IC50 [1] | IC50 [2] | Ki [2] | IC50 [3]

CN(C)[C@@H]1C(O)=C(C(N)=O)C(=O)[C@@]2(O)C(O)=C3C(=O)c4c(O)cccc4[C@@](C)(O)[C@H]3[C@H](O)[C@@H]12 [OXYTETRACYCLINE]
Not Active: IC50 [1] | IC50 [2] | Ki [2] | IC50 [3] | IC50 (Androgen receptor)

O=C1CN=C(c2ccccc2)c2cc([N+](=O)[O-])ccc2N1 [NITRAZEPAM]
Not Active: IC50 [1] | IC50 [2] | Ki [2] | IC50 [3]

CC(=O)CCCCn1c(=O)c2c(ncn2C)n(C)c1=O [PENTOXIFYLLINE]
Not Active: IC50 [1] | IC50 [2] | Ki [2] | IC50 [3]

C=C1C(=O)O[C@@H]2C3O[C@]3(C)CC/C=C(\C)CC[C@@H]12 (stereo partly specified)
Not Active: IC50 [1] | IC50 [2] | Ki [2] | IC50 [3] | IC50 (Androgen receptor)

c1ccc2c(c1)cc1ccc3cccc4ccc2c1c34
Not Active: IC50 [1] | IC50 [2] | Ki [2] | IC50 [3]

CCCCOC(=O)c1ccc(N)cc1 [BUTAMBEN]
Not Active: IC50 [1] | IC50 [2] | Ki [2] | IC50 [3]

Cc1ccccc1N1CCN(CCc2nnc3n2CCCC3)CC1 [DAPIPRAZOLE]
Not Active: IC50 [1] | IC50 [2] | Ki [2] | IC50 [3]

NCC(=O)O [GLYCINE]
Not Active: IC50 [1] | IC50 [2] | Ki [2] | IC50 [3]

O=C1CCc2cc(OCCCCc3nnnn3C3CCCCC3)ccc2N1 [CILOSTAZOL]
Not Active: IC50 [1] | IC50 [2] | Ki [2] | IC50 [3]
